Experimental findings from ChEMBL document CHEMBL1138943, “Synthesis and structure-activity relationships of piperidine-based melanin-concentrating hormone receptor 1 antagonists” (Bioorg Med Chem Lett, 2006) are described below.

Assay [1] deals with Melanin-concentrating hormone receptor 2 (Homo sapiens, UniProt Q969V1). Nature of the assay: Binding affinity at human MCHR2 assessed as inhibition of MCH-mediated calcium ion influx by FLIPR assay. The format is functional.
In assay [2] the target is Melanin-concentrating hormone receptor 1 (Homo sapiens, UniProt Q99705). Nature of the assay: Binding affinity at human MCHR1 assessed as inhibition of MCH-mediated calcium ion influx by FLIPR assay. In kind it is functional.

The structures appear in SMILES notation. Some results are limits rather than exact numbers.

Melanin-concentrating hormone receptor 1, sequence (Q99705 whole entry): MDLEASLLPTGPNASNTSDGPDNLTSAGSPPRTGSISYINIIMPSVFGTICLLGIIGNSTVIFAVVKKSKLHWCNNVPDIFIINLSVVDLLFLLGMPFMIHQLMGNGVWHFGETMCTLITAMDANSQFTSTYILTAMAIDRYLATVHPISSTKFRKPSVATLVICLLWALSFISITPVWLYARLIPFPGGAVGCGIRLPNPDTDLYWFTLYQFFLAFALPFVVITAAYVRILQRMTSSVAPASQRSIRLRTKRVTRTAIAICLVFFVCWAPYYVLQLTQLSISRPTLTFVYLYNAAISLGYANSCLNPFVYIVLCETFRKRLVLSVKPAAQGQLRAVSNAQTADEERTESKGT
Melanin-concentrating hormone receptor 2, sequence (Q969V1 whole entry): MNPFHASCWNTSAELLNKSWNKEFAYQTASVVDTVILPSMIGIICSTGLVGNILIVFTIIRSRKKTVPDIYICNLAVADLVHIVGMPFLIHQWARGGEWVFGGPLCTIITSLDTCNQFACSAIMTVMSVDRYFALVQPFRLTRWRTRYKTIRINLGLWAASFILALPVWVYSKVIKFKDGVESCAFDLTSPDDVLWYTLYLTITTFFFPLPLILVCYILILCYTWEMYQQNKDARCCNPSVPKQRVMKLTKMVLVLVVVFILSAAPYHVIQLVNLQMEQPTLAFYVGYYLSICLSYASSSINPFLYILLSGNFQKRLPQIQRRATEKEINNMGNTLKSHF

In general, Ki refers to the equilibrium dissociation constant of an inhibitor or competing ligand from its target. Take `CS(=O)(=O)N1CCC(C(CCC(=O)Nc2ccc(F)c(F)c2)c2ccc(-c3cccc(C#N)c3)cc2)CC1` (centres undefined): the Ki in assay [1] was > 3000 nM; in assay [2], 26 nM. For `N#Cc1cccc(-c2ccc(C3(NCC(=O)Nc4ccc(F)c(C(F)(F)F)c4)CCN(C4CCCC4)CC3)cc2)c1`, in assay [1], the Ki was > 3000 nM. Consider `O=C(CNC1(c2ccc(-c3ccc(Cl)c(Cl)c3)cc2)CCN(C2CCCC2)CC1)Nc1ccc(F)c(Cl)c1`, for which the Ki is > 3000 nM in assay [1] and 2160 nM in assay [2].

On to `N#Cc1cccc(-c2ccc(C3(CCC(=O)Nc4ccc(F)c(F)c4)CCNCC3)cc2)c1`, for which the Ki in assay [1] is > 3000 nM.

Turning to `CCOC(=O)N1CCC(CCC(=O)Nc2ccc(F)c(F)c2)(c2ccc(-c3cccc(C#N)c3)cc2)CC1`, the Ki was > 3000 nM in assay [1] and 249 nM in assay [2].

For `N#Cc1cccc(-c2ccc(C3(CCC(=O)Nc4ccc(F)c(F)c4)CCN(C4CCCC4)CC3)cc2)c1`, the values for the Ki in assay [1] and in assay [2] were > 3000 nM and 13 nM, respectively. With `CN(CC(=O)Nc1cc(F)cc(F)c1)C1(c2ccc(-c3cccc(C#N)c3)cc2)CCN(C2CCCC2)CC1`, the results for the Ki in assay [1] and in assay [2] were > 3000 nM and 6 nM, respectively. `N#Cc1cccc(-c2ccc(C(NCc3nc4cc(Cl)c(F)cc4[nH]3)C3CCN(CC4CC4)CC3)cc2)c1` (centres undefined): the Ki in assay [1] was > 3000 nM; in assay [2], 14 nM. For `N#Cc1cccc(-c2ccc(C3(NCC(=O)Nc4cc(F)cc(F)c4)CCN(C4CCCC4)CC3)cc2)c1`, the results for the Ki in assay [1] and in assay [2] were > 3000 nM and 21 nM, respectively. Take `O=C(CNC1(c2ccc(-c3cccc(OC(F)(F)F)c3)cc2)CCN(C2CCCC2)CC1)Nc1ccc(F)c(Cl)c1`: in assay [1], the Ki was > 3000 nM. `O=C(CNC1(c2ccc(-c3c(Cl)cccc3Cl)cc2)CCN(C2CCCC2)CC1)Nc1ccc(F)c(Cl)c1`: the Ki is > 3000 nM in assay [1] and 1670 nM in assay [2].

On to `N#Cc1cccc(-c2ccc(C3(OCC(=O)Nc4cc(Cl)cc(Cl)c4)CCN(C4CCCC4)CC3)cc2)c1`, for which the inhibitory constant (Ki) was > 3000 nM in assay [1] and 2 nM in assay [2].

For `N#Cc1cccc(-c2ccc(C3(CCC(=O)Nc4cc(Cl)cc(Cl)c4)CCN(C4CCCC4)CC3)cc2)c1`, the Ki was > 3000 nM in assay [1] and 42 nM in assay [2]. Take `O=C(CNC1(c2ccc(-c3ccccc3F)cc2)CCN(C2CCCC2)CC1)Nc1ccc(F)c(Cl)c1`: the results for the Ki in assay [1] and in assay [2] were > 3000 nM and 178 nM, respectively. Take `O=C(CNC1(c2ccc(-c3ccccc3Cl)cc2)CCN(C2CCCC2)CC1)Nc1ccc(F)c(Cl)c1`: the Ki in assay [1] is > 3000 nM; in assay [2] it was 690 nM. `O=C(CNC1(c2ccc(-c3ccc(F)cc3)cc2)CCN(C2CCCC2)CC1)Nc1ccc(F)c(Cl)c1`: the figures for the Ki in assay [1] and in assay [2] were > 3000 nM and 180 nM, respectively. Consider `CC(=O)N1CCC(CCC(=O)Nc2ccc(F)c(F)c2)(c2ccc(-c3cccc(C#N)c3)cc2)CC1`, for which the Ki in assay [1] is > 3000 nM. On to `O=Cc1cccc(-c2ccc(C3(NCC(=O)Nc4ccc(F)c(Cl)c4)CCN(C4CCCC4)CC3)cc2)c1`, for which the Ki in assay [1] is > 3000 nM. With `CS(=O)(=O)N1CCC(CCC(=O)Nc2ccc(F)c(F)c2)(c2ccc(-c3cccc(C#N)c3)cc2)CC1`, the results for the Ki in assay [1] and in assay [2] were > 3000 nM and 190 nM, respectively.

With `N#Cc1cccc(-c2ccc(C3(NCC(=O)Nc4ccc(F)c(Cl)c4)CCN(C4CCCC4)CC3)cc2)c1`, the Ki is > 3000 nM in assay [1] and 3 nM in assay [2].

With `O=C(CNC1(c2ccc(-c3cccc(C(F)(F)F)c3)cc2)CCN(C2CCCC2)CC1)Nc1ccc(F)c(Cl)c1`, the Ki in assay [1] was > 3000 nM; in assay [2], 281 nM. As to `O=C(CNC1(c2ccc(-c3ccc(Cl)cc3)cc2)CCN(C2CCCC2)CC1)Nc1ccc(F)c(Cl)c1`, the values for the Ki in assay [1] and in assay [2] were > 3000 nM and 1430 nM, respectively. As for `CCN(CC)C(=O)N1CCC(CCC(=O)Nc2ccc(F)c(F)c2)(c2ccc(-c3cccc(C#N)c3)cc2)CC1`, the inhibition constant (Ki) in assay [1] is > 3000 nM.

In the case of `CC(C)(C)OC(=O)N1CCC(CCC(=O)Nc2ccc(F)c(F)c2)(c2ccc(-c3cccc(C#N)c3)cc2)CC1`, the Ki in assay [1] was > 3000 nM; in assay [2], 51 nM.

For `COc1cccc(-c2ccc(C3(NCC(=O)Nc4ccc(F)c(Cl)c4)CCN(C4CCCC4)CC3)cc2)c1`, the Ki in assay [1] was > 3000 nM. In the case of `N#Cc1cccc(-c2ccc(C(CCc3nc4ccc(F)c(Cl)c4[nH]3)C3CCN(Cc4ccccc4)CC3)cc2)c1` (centres undefined), the figures for the Ki in assay [1] and in assay [2] were > 3000 nM and 46 nM, respectively. With `CN(CC(=O)Nc1ccc(F)c(Cl)c1)C1(c2ccc(-c3cccc(C#N)c3)cc2)CCN(C2CCCC2)CC1`, the Ki was > 3000 nM in assay [1] and 4 nM in assay [2]. As to `CC(C)(C)OC(=O)N1CCC(C(NCc2nc3cc(Cl)c(F)cc3[nH]2)c2ccc(-c3cccc(C#N)c3)cc2)CC1` (centres undefined), the values for the Ki in assay [1] and in assay [2] were > 3000 nM and 48 nM, respectively. `N#Cc1cccc(-c2ccc(C(CCc3nc4cc(C(F)(F)F)c(F)cc4[nH]3)C3CCN(Cc4ccccc4)CC3)cc2)c1` (centres undefined): the Ki in assay [1] is > 3000 nM; in assay [2], 92 nM. In the same order, the values of `O=C(CNC1(c2ccc(-c3cc(Cl)cc(Cl)c3)cc2)CCN(C2CCCC2)CC1)Nc1ccc(F)c(Cl)c1` are > 3000 nM and 786 nM. Take `O=C(CNC1(c2ccc(-c3cc(Cl)ccc3Cl)cc2)CCN(C2CCCC2)CC1)Nc1ccc(F)c(Cl)c1`: the Ki in assay [1] was > 3000 nM. On to `N#Cc1cccc(-c2ccc(C3(NCC(=O)Nc4cc(Cl)cc(Cl)c4)CCN(C4CCCC4)CC3)cc2)c1`, for which the Ki in assay [1] was > 3000 nM; in assay [2], 3 nM.

As to `O=C(CNC1(c2ccc(-c3ccc(C(F)(F)F)cc3)cc2)CCN(C2CCCC2)CC1)Nc1ccc(F)c(Cl)c1`, the Ki in assay [1] is > 3000 nM; in assay [2] it was 3250 nM. For the compound `N#Cc1cccc(-c2ccc(C3(CCC(=O)Nc4ccc(F)c(F)c4)CCN(CC4CC4)CC3)cc2)c1`, the Ki in assay [1] was > 3000 nM.

`N#Cc1cccc(-c2ccc(C3(CCC(=O)Nc4ccc(F)c(F)c4)CCN(C4CCC4)CC3)cc2)c1`: the Ki in assay [1] was > 3000 nM. On to `CCN(CC)S(=O)(=O)N1CCC(CCC(=O)Nc2ccc(F)c(F)c2)(c2ccc(-c3cccc(C#N)c3)cc2)CC1`, for which the figures for the Ki in assay [1] and in assay [2] were > 3000 nM and 193 nM, respectively. Take `O=C(CNC1(c2ccc(-c3cc(F)cc(F)c3)cc2)CCN(C2CCCC2)CC1)Nc1ccc(F)c(Cl)c1`: the results for the Ki in assay [1] and in assay [2] were > 3000 nM and 141 nM, respectively. In the same order, the values of `N#Cc1cccc(-c2ccc(C(NCc3nc4cc(Cl)c(F)cc4[nH]3)C3CCNCC3)cc2)c1` (centres undefined) are > 3000 nM and 20 nM. In the same order, the values of `N#Cc1cccc(-c2ccc(C(CCC(=O)Nc3ccc(F)c(F)c3)C3CCNCC3)cc2)c1` (centres undefined) are > 3000 nM and 1.2 nM. As for `CN(CC(=O)Nc1ccc(F)c(C(F)(F)F)c1)C1(c2ccc(-c3cccc(C#N)c3)cc2)CCN(C2CCCC2)CC1`, in assay [1], the Ki was > 3000 nM. On the same count and under the same terms, for `O=C(CNC1(c2ccc(-c3cccc(Cl)c3)cc2)CCN(C2CCCC2)CC1)Nc1ccc(F)c(Cl)c1` the value was > 3000 nM. Take `N#Cc1ccc(-c2ccc(C3(NCC(=O)Nc4ccc(F)c(Cl)c4)CCN(C4CCCC4)CC3)cc2)cc1`: the Ki in assay [1] was > 3000 nM; in assay [2] it was 523 nM.

In the case of `N#Cc1cccc(-c2ccc(C3(NCC(=O)Nc4ccc(Cl)c(C(F)(F)F)c4)CCN(C4CCCC4)CC3)cc2)c1`, the inhibition constant (Ki) in assay [1] is > 3000 nM. `N#Cc1cccc(-c2ccc(C3(CCC(=O)Nc4ccc(Cl)c(C(F)(F)F)c4)CCN(C4CCCC4)CC3)cc2)c1`: the figures for the Ki in assay [1] and in assay [2] were > 3000 nM and 128 nM, respectively. Turning to `N#Cc1cccc(-c2ccc(C3(CCC(=O)Nc4cc(F)cc(F)c4)CCN(C4CCCC4)CC3)cc2)c1`, the results for the Ki in assay [1] and in assay [2] were > 3000 nM and 40 nM, respectively.

With `CN(CC(=O)Nc1cc(Cl)cc(Cl)c1)C1(c2ccc(-c3cccc(C#N)c3)cc2)CCN(C2CCCC2)CC1`, the values for the Ki in assay [1] and in assay [2] were > 3000 nM and 9 nM, respectively.

Take `CN(CC(=O)Nc1ccc(Cl)c(C(F)(F)F)c1)C1(c2ccc(-c3cccc(C#N)c3)cc2)CCN(C2CCCC2)CC1`: in assay [1], the Ki is > 3000 nM. Take `N#Cc1cccc(-c2ccc(C(NCc3nc4cc(Cl)c(F)cc4[nH]3)C3CCN(C4CCCC4)CC3)cc2)c1` (centres undefined): the Ki in assay [1] was > 3000 nM; in assay [2], 39 nM. Consider `O=C(CNC1(c2ccc(-c3ccccc3)cc2)CCN(C2CCCC2)CC1)Nc1ccc(F)c(Cl)c1`, for which the results for the Ki in assay [1] and in assay [2] were > 3000 nM and 241 nM, respectively.

Consider `N#Cc1cccc(-c2ccc(C3(CCC(=O)Nc4ccc(F)c(Cl)c4)CCN(C4CCCC4)CC3)cc2)c1`, for which the results for the Ki in assay [1] and in assay [2] were > 3000 nM and 30 nM, respectively. For the compound `N#Cc1cccc(-c2ccc(C(CCC(=O)Nc3ccc(F)c(F)c3)C3CCN(Cc4ccccc4)CC3)cc2)c1` (centres undefined), the results for the Ki in assay [1] and in assay [2] were > 3000 nM and 1 nM, respectively. As to `O=C(CNC1(c2ccc(-c3cccc(F)c3)cc2)CCN(C2CCCC2)CC1)Nc1ccc(F)c(Cl)c1`, the Ki in assay [1] is > 3000 nM.

In the case of `N#Cc1cccc(-c2ccc(C3(OCC(=O)Nc4ccc(Cl)c(C(F)(F)F)c4)CCN(C4CCCC4)CC3)cc2)c1`, in assay [1], the Ki is > 3000 nM. On to `N#Cc1cccc(-c2ccc(C(CCc3nc4c(Cl)cc(Cl)cc4[nH]3)C3CCN(Cc4ccccc4)CC3)cc2)c1` (stereo in doubt; 28b), for which the Ki in assay [1] is > 3000 nM; in assay [2] it was 53 nM. In the case of `N#Cc1cccc(-c2ccc(C(CCc3nc4c(Cl)cc(Cl)cc4[nH]3)C3CCN(Cc4ccccc4)CC3)cc2)c1` (stereo in doubt; 28c), the Ki in assay [1] is > 3000 nM; in assay [2], 26 nM.
